Experiments:
Nalm-6 SF3B1^K700K cells = test: Splice variant levels in Nalm-6 isogenic cells by NanoString assay; type: cell-based, human; conditions: 15 nM
Description: (§1) A NanoString® assay was developed to quantify aberrant and canonical splice variants and was validated using the same cell panel. For the NanoString® assay, 750 ng of purified total RNA was used as template for the nCounter® (NanoString Technologies®) expression assay using a custom panel of NanoString® probes. The sample preparation was set up as recommended (NanoString® Technologies protocol no. C-0003-02) for an overnight hybridization at 65° C. The following day, samples were processed through the automated nCounter® Analysis System Prep Station using the high sensitivity protocol (NanoString® Technologies protocol no. MAN-00029-05) followed by processing through the nCounter® Analysis System Digital Analyzer (protocol no. MAN-00021-01) using 1150 FOVs for detection. Data was downloaded and analyzed for quality control metrics and normalization using the nSolver™ Analysis Software (NanoString Technologies®). The data was first normalized for lane-to-lane variation using the positive assay controls provided by the manufacturer (NanoString® positive controls A-F [containing in vitro transcribed RNA transcripts at concentrations of 128 fM, 32 fM, 8 fM, 2 fM, 0.5 fM, and 0.125 fM, each pre-mixed with NanoString® Reporter CodeSet probes])). Any samples with normalization factors <0.3 and >3 were not considered for further analysis. This was followed by content normalization using the geo-mean of GAPDH, EEF1A1 and RPLP0. All samples were within the recommended 0.1-10 normalization factor range. Each normalized value was then checked to ensure that it was at least two standard deviations higher than the average of background signal recorded for that lane. Any value below that was considered below detection limit. These normalized values were taken for further bioinformatics and statistical analysis.
(§2) To investigate the broader activity of E7107 on normal and aberrant splicing, RNA from Nalm-6 isogenic cells treated for two and six hours at 15 nM was analyzed by NanoString®. […] Normal and aberrant splicing in the isogenic cell lines was also analyzed by RNA-Seq following treatment with one of additional compounds having formulas 1 or 2. […] For the RNA-Seq analysis, cells were washed with PBS after treatment with E7107 or other test compound, and RNA was isolated using PureLink (Life Technology) as reported in the manufacturer's manual. cDNA library preparation, sequencing and raw read filtering was performed as described in Ren, S. et al. “RNA-Seq analysis of prostate cancer in the Chinese population identifies recurrent gene fusions, cancer-associated long noncoding RNAs and aberrant alternative splicings.” Cell Res 22, 806-821, doi:10.1038/cr.2012.30 (2012).

Nalm-6 SF3B1^K700E cells = test: as above; type: cell-based, human; conditions: 15 nM
Description: as §1, §2

SMILES: CC[C@H](O)[C@@H](C)[C@H]1O[C@@H]1C[C@@](C)(O)/C=C/C=C(\C)[C@H]1OC(=O)C[C@H](O)CC[C@@](C)(O)[C@@H](OC(=O)N2CCN(C3CCCCCC3)CC2)/C=C/[C@@H]1C [Compound E7107]
- inhibition of splicing (all isoforms quantified) (Nalm-6 SF3B1^K700K cells; six hours): clear inhibition
- inhibition of splicing (gene, WT-associated and MUT-associated isoform expression) (Nalm-6 SF3B1^K700K cells; two hours): partial inhibition of splicing
- inhibition of splicing (all isoforms quantified) (Nalm-6 SF3B1^K700E cells; six hours): clear inhibition
- inhibition of splicing (gene, WT-associated and MUT-associated isoform expression) (Nalm-6 SF3B1^K700E cells; two hours): partial inhibition of splicing

Reference: US11761045B2, “Splice variants associated with neomorphic SF3B1 mutants” (Eisai R&D Management Co., Ltd., priority 2015, dated 2023)
